Measured values from US20060094017A1, “Immunogens for hiv vaccine” (priority 2003, published 2006).

Columns and labels:
[1] = system: Mab 2G12; assay: BIACore (SPR) binding of Mab 2G12 to biotinylated synthetic mimotope peptides on streptavidin chip; parameters: species or system human; conditions: synthetic biotinylated mimotope peptide (500 μg/ml) on streptavidin chip; 100 μl Mab 2G12 at 0.25 μg/μl, 5 μl/min
Method: Surface plasmon resonance was also used to confirm the binding of synthetic mimotope peptides identified from the panning procedure described in Example 2 to Mab 2G12. In this assay, a solution of biotinylated mimotope peptide is injected into a flowcell containing a BIACore chip coated with streptavidin. The biotin-streptavidin interaction immobilizes the synthetic mimotope peptide on the chip surface. Mab 2G12 is then injected into the flowcell to determine if the antibody recognizes and is captured by the bound mimotope. Specifically, the streptavidin BIACore chip was warmed to room temperature for 30 minutes. The chip was then docked and primed 2× with HBS-EP (0.01M HEPES, pH 7.4, 0.15M NaCl, 3 mM EDTA, 0.005% Surfactant P20) and conditioned for three cycles with 1M NaCl/50 mM NaOH. Each synthesized, biotinylated mimotope peptide was diluted 1:2 in HBS (0.01M HEPES, pH 7.4) to a final concentration of 500 μg/ml. Seventy-five microliters of each mimotope peptide was then injected into the flowcell at a flow rate of 5 μl/min. Mab 2G12 was resuspended in sterile water to a concentration of 0.25 μg/μl, and 100 μl of the antibody was injected into the flowcell containing the captured synthetic peptide at a flow rate of 5 μl/min. The captured Mab2G12 was measure in RUs. Of the mimotopes tested by this procedure, the synthetic peptide represented by SEQ ID NO:3, WKIPDHGIVVFSWFP, bound Mab 2G12 the tightest at 1193 RUs. In comparison, RSGHKVWVVSTKESS (SEQ ID NO:1) bound at 117 RUs, VLRLMECHFQCVPSL (SEQ ID NO:4) bound at 133 RUs, and TLKSLPYRAVLGAQA (SEQ ID NO:5) bound at 37 RUs. […] Thus, the mimotope represented by SEQ ID NO:2 binds to Mab 2G12 more efficiently as a multivalent structure (e.g., when within the pIII on the tip of the filamentous phage particle).

[2] = system: Mab 2G12; assay: BIACore (SPR) binding of Mab 2G12 to mimotopes displayed on phage captured by anti-M13 antibody; parameters: species or system human; conditions: round three phage-displayed mimotope (pIII) captured via anti-M13 on RAMFc CM5 chip; 25 μl Mab 2G12 at 100 μg/ml
Method: BIACore confirmation of mimotope binding to Mab 2G12 was determined for four of the identified peptide sequences disclosed in the present application. For the first assay, a batch of individually selected phage was prepared from the transduced E. coli cells described in Example 2. The phage were concentrated by PEG precipitation to be used in the assay. Initially, a murine anti-phage pVIII monoclonal antibody (anti-M13) is captured by a BIACore CM5 chip that is coated with a standard rabbit anti-mouse (Fc) antibody (RAMFc). The anti-M13 antibody captures the chimeric phage selected from the panning procedure described in Example 2. Mab 2G12 is then flowed over the chip in order to describe and confirm binding of the antibody to the captured chimeric phage pIII.
Specifically, RAMFc was first immobilized on the gold surface of the BIACore CM5 chip (Uppsala, Sweden) containing dextran by amine coupling. Twenty-five microliters of anti-M13 antibody (Amersham Pharmacia Biotech, Piscataway, N.J.), at 1 mg/ml, was injected into the flowcell containing the chip at a flow rate of […] and captured by the immobilized RAMFc. The captured anti-M13 was measured in resonance units (RU). After completing the initial control tests of the flowcell, the chip was regenerated by injecting 10 μl of 20 mM HCL, 3 times, into the flowcell. To determine whether Mab 2G12 can detect the mimotopes isolated in the panning procedure described herein, 25 μl of anti-M13 at 1 mg/ml was first injected into the flowcell. Fifty microliters of the round three phage preparation of the mimotope sequence identified by SEQ ID NO:3, WKIPDHGIVVFSWFP, at >1×10^10 phage particles per ml, was injected into the flowcell. This was followed by 25 μl of Mab 2G12 at 100 μg/ml. The amount of Mab 2G12 captured on the chip was subsequently measured in RUs. This procedure was repeated for the following round three mimotopes: RSGHKVWVVSTKESS (SEQ ID NO:1), KCCFAESSRSGTGRY (SEQ ID NO:2) and VLRLMECHFQCVPSL (SEQ ID NO:4). […] Of the four mimotopes tested by this procedure, RSGHKVWVVSTKESS (SEQ ID NO:1) bound Mab 2G12 the tightest at 312 RUs. In comparison, KCCFAESSRSGTGRY (SEQ ID NO:2) bound at 120 RUs, WKIPDHGIVVFSWFP (SEQ ID NO:3) bound at 24 RUs, and VLRLMECHFQCVPSL (SEQ ID NO:4) bound at 17 RUs.

Sequence	captured Mab 2G12 [1]	amount of Mab 2G12 captured on the chip [2] [RUs]
TLKSLPYRAVLGAQA (Synthetic peptide mimotope) [SEQ ID NO:5]	37 RUs	–
KCCFAESSRSGTGRY (Synthetic peptide mimotope) [SEQ ID NO:2]	no binding	120
RSGHKVWVVSTKESS (Synthetic peptide mimotope) [SEQ ID NO:1]	117 RUs	312
VLRLMECHFQCVPSL (Synthetic peptide mimotope) [SEQ ID NO:4]	133 RUs	17
WKIPDHGIVVFSWFP (Synthetic peptide mimotope) [SEQ ID NO:3]	1193 RUs	24
